Measurements: patent publication US10940210B2, “BSH complex for boron neutron capture therapy” (National University Corporation Okayama University, priority 2016, dated 2021)

How the values were obtained:
U87ΔEGFR brain tumor = assay: Tumor-specific introduction of BSH in brain tumor model animal, anti-BSH immunohistostaining; type: in vivo, mouse; conditions: 200 μL tail vein, BSH 20 mM (with A6K 2 mM in complex); 12 hours after administration
Procedure: Animals used in the present experiment were bred, housed and used in accordance with the procedure approved (approval code: OKU-2016475) by the Animal Care and Use Committee, Okayama University. Tumor-bearing model mice (BALB/C nu/nu, female, 6 to 8 weeks of age, 25 g, Japan SLC, Inc., Shizuoka) were created by directly injecting 3 μL of a U87ΔEGFR cell suspension (1×10^5 cells/μL) into the brain. Two weeks later, 200 μL of the complex containing A6K and BSH (A6K 2 mM/BSH 20 mM) and 200 μL of BSH 20 mM as control experiments were respectively administered from the tail vein (given that a mouse body weight was 20 g, A6K-HCl was converted to 8 mg/kg and BSH was converted to 33.4 mg/kg.)
The complex used in the experiment (the compound described in Example 4 (1)) was prepared as follows. 70 μL of MQ water was added to 70 μL of A6K 10 mM to adjust to A6K 5 mM. […]
Twelve hours after administration, the mouse brain was embedded using an embedding medium for a frozen tissue section, tissue tek O.C.T compound. […] After washing, the section was immersed for 2 hours at room temperature in a solution of a donkey anti-mouse antibody (Life Technologies) labelled with Alexa-Fluor 488 (green fluorescence) (20 μg/mL) and a solution of a goat anti-rabbit antibody (Life Technologies) labelled with Alexa-Fluor 555 (red fluorescence) (2 μg/mL). […]

[1] = test system: glioma cell line U87ΔEGFR; assay: Delivery of complex into a cancer cell, boron concentration in the cell by ICP-AES; type: cell-based, human; conditions: BSH 2 mM alone or with A6K (hydrochloride salt) 200 μM, 37° C. for 24 hours
Procedure: Mixing times were 10 minutes, 30 minutes, and 180 minutes. The obtained complex was diluted (pH 7.1 to 7.3) with PBS and added to a glioma cell line U87ΔEGFR in a petri dish. […] Each cell sample obtained by incubating, with the complex, at 37° C. for 3 hours, 12 hours, and 24 hours was subjected to ICP-AES thereby to measure a boron concentration in the cell. […] The incubation time of 12 hours was sufficient. […] The time for mixing with stirring of 10 minutes was sufficient. Increases in the BSH amounts in the cell were detected as an incubation time was extended.
A6R (TFA salt) and BSH were mixed with stirring by the same method as the method described in the above (1) to prepare a complex. The obtained complex was diluted (pH 7.1 to 7.3) with PBS and added to a glioma cell line U87ΔEGFR in a petri dish. Each cell sample obtained by incubating, with the complex, at 37° C. for 6 hours, 12 hours, and 24 hours was subjected to ICP-AES thereby to measure a boron concentration in the cell.
The complex containing A6K (hydrochloride salt) and BSH obtained in the above (1) (a molar ratio of A6K (hydrochloride salt):BSH was 1:10) was added to a glioma cell line U87ΔEGFR in a similar procedure to that described in Example 2 (2). The complex was added in an amount in such a way that final concentrations of A6K (hydrochloride salt) and BSH were as shown in FIG. 11. […]

presence of BSH in brain tissue (green fluorescence) (U87ΔEGFR brain tumor): weak
Substance: mercaptoundecahydrododecaborate [BSH]
location of BSH relative to tumor tissue (HLA-A positive) (U87ΔEGFR brain tumor): not different between tumor tissues and normal brain tissues
intracellular boron concentration [1]: 595.2±105.1 ng/10^6 cells
